According to ChEMBL document CHEMBL4190365, “Synthesis and antiproliferative properties of new hydrophilic esters of triterpenic acids” (Eur J Med Chem, 2017):

Assays:
Type in all cases: functional, cell-based
CCRF-CEM = test: Cytotoxicity in human CEM cells assessed as reduction in cell viability incubated for 72 hrs by calcein AM cytotoxicity assay
MCF7 = test: Cytotoxicity in human MCF7 cells assessed as reduction in cell viability incubated for 72 hrs by calcein AM cytotoxicity assay
HeLa = test: Cytotoxicity in human HeLa cells assessed as reduction in cell viability incubated for 72 hrs by calcein AM cytotoxicity assay
G-361 = test: Cytotoxicity in human G361 cells assessed as reduction in cell viability incubated for 72 hrs by calcein AM cytotoxicity assay
BJ = test: Cytotoxicity in human BJ cells assessed as reduction in cell viability incubated for 72 hrs by calcein AM cytotoxicity assay

CC(C)[C@@H]1CC[C@]2(C(=O)OCCN3CCOCC3)CC[C@]3(C)[C@H](CC[C@@H]4[C@@]5(C)CC[C@H](O)C(C)(C)[C@@H]5CC[C@]43C)[C@@H]12
IC50 (CCRF-CEM; Homo sapiens, CCRF-CEM, 72 h): 45.8 µM | IC50 (MCF7; Homo sapiens, MCF7, 72 h): 37.6 µM | IC50 (HeLa; Homo sapiens, HeLa, 72 h): 31.8 µM | IC50 (G-361; Homo sapiens, G-361, 72 h): 33.8 µM | IC50 (BJ; Homo sapiens, BJ, 72 h): 37.4 µM

C=C(C)[C@@H]1CC[C@]2(C(=O)OCCOC)CC[C@]3(C)[C@H](CC[C@@H]4[C@@]5(C)CC[C@H](O)C(C)(C)[C@@H]5CC[C@]43C)[C@@H]12
IC50 (CCRF-CEM; Homo sapiens, CCRF-CEM, 72 h): 32.8 µM | IC50 (MCF7; Homo sapiens, MCF7, 72 h): 35.2 µM | IC50 (HeLa; Homo sapiens, HeLa, 72 h): 32.4 µM | IC50 (G-361; Homo sapiens, G-361, 72 h): 30.3 µM | IC50 (BJ; Homo sapiens, BJ, 72 h): 43.7 µM

CC(=O)O[C@H]1CC[C@]2(C)[C@H]3CC[C@@H]4C5=C(C(C)C)C(=O)C[C@]5(C(=O)O[C@@H]5O[C@H](CO)[C@H](O)[C@H](O)[C@H]5O)CC[C@@]4(C)[C@]3(C)CC[C@H]2C1(C)C
IC50 (CCRF-CEM; Homo sapiens, CCRF-CEM, 72 h): 18.8 µM | IC50 (MCF7; Homo sapiens, MCF7, 72 h): 37 µM | IC50 (HeLa; Homo sapiens, HeLa, 72 h): 38.8 µM | IC50 (G-361; Homo sapiens, G-361, 72 h): 42.7 µM | IC50 (BJ; Homo sapiens, BJ, 72 h): 48.2 µM

CC(C)[C@@H]1CC[C@]2(C(=O)O[C@@H]3O[C@H](CO)[C@H](O)[C@H](O)[C@H]3O)CC[C@]3(C)[C@H](CC[C@@H]4[C@@]5(C)CC[C@H](O)C(C)(C)[C@@H]5CC[C@]43C)[C@@H]12
IC50 (CCRF-CEM; Homo sapiens, CCRF-CEM, 72 h): > 50 µM | IC50 (MCF7; Homo sapiens, MCF7, 72 h): > 50 µM | IC50 (HeLa; Homo sapiens, HeLa, 72 h): > 50 µM | IC50 (G-361; Homo sapiens, G-361, 72 h): > 50 µM | IC50 (BJ; Homo sapiens, BJ, 72 h): > 50 µM

C=C(C=O)[C@@H]1CC[C@]2(C(=O)OCCN3CCOCC3)CC[C@]3(C)[C@H](CC[C@@H]4[C@@]5(C)CC[C@H](O)C(C)(C)[C@@H]5CC[C@]43C)[C@@H]12
IC50 (CCRF-CEM; Homo sapiens, CCRF-CEM, 72 h): 3.8 µM | IC50 (MCF7; Homo sapiens, MCF7, 72 h): 2.2 µM | IC50 (HeLa; Homo sapiens, HeLa, 72 h): 11 µM | IC50 (G-361; Homo sapiens, G-361, 72 h): 5.3 µM | IC50 (BJ; Homo sapiens, BJ, 72 h): 19.2 µM

C=C(C)[C@@H]1CC[C@]2(C(=O)O[C@@H]3O[C@H](COC(C)=O)[C@@H](OC(C)=O)[C@H](OC(C)=O)[C@H]3OC(C)=O)CC[C@]3(C)[C@H](CC[C@@H]4[C@@]5(C)CC[C@H](O)C(C)(C)[C@@H]5CC[C@]43C)[C@@H]12
IC50 (CCRF-CEM; Homo sapiens, CCRF-CEM, 72 h): > 50 µM | IC50 (MCF7; Homo sapiens, MCF7, 72 h): > 50 µM | IC50 (HeLa; Homo sapiens, HeLa, 72 h): > 50 µM | IC50 (G-361; Homo sapiens, G-361, 72 h): > 50 µM | IC50 (BJ; Homo sapiens, BJ, 72 h): > 50 µM

CC(=O)OC[C@H]1O[C@@H](OC(=O)[C@]2(COC(C)=O)CC[C@]3(C)[C@H](CC[C@@H]4[C@@]5(C)CC[C@H](OC(C)=O)C(C)(C)[C@@H]5CC[C@]43C)[C@@H]2O)[C@H](OC(C)=O)[C@@H](OC(C)=O)[C@H]1OC(C)=O
IC50 (CCRF-CEM; Homo sapiens, CCRF-CEM, 72 h): > 50 µM | IC50 (MCF7; Homo sapiens, MCF7, 72 h): > 50 µM | IC50 (HeLa; Homo sapiens, HeLa, 72 h): > 50 µM | IC50 (G-361; Homo sapiens, G-361, 72 h): > 50 µM | IC50 (BJ; Homo sapiens, BJ, 72 h): > 50 µM

C=C(C)[C@@H]1CC[C@]2(C(=O)OCCN3CCCCC3)CC[C@]3(C)[C@H](CC[C@@H]4[C@@]5(C)CC[C@H](O)C(C)(C)[C@@H]5CC[C@]43C)[C@@H]12
IC50 (CCRF-CEM; Homo sapiens, CCRF-CEM, 72 h): 21.5 µM | IC50 (MCF7; mcf7): 33.5 µM | IC50 (HeLa; hela): 24.7 µM | IC50 (G-361; g-361): 33.8 µM | IC50 (BJ; bj): 45.9 µM

CC(=O)OC[C@H]1O[C@@H](OC(=O)[C@]23CC[C@@H](C(C)C)[C@@H]2[C@H]2CC[C@@H]4[C@@]5(C)CC[C@H](O)C(C)(C)[C@@H]5CC[C@@]4(C)[C@]2(C)CC3)[C@H](OC(C)=O)[C@@H](OC(C)=O)[C@@H]1OC(C)=O
IC50 (CCRF-CEM; Homo sapiens, CCRF-CEM, 72 h): 18.6 µM | IC50 (MCF7; Homo sapiens, MCF7, 72 h): 13.9 µM | IC50 (HeLa; Homo sapiens, HeLa, 72 h): 15.6 µM | IC50 (G-361; Homo sapiens, G-361, 72 h): 8.1 µM | IC50 (BJ; Homo sapiens, BJ, 72 h): > 50 µM

C=C(C)[C@@H]1CC[C@]2(C(=O)O[C@@H]3O[C@H](CO)[C@H](O)[C@H](O)[C@H]3O)CC[C@]3(C)[C@H](CC[C@@H]4[C@@]5(C)CC[C@H](O)C(C)(C)[C@@H]5CC[C@]43C)[C@@H]12
IC50 (CCRF-CEM; Homo sapiens, CCRF-CEM, 72 h): > 50 µM | IC50 (MCF7; Homo sapiens, MCF7, 72 h): > 50 µM | IC50 (HeLa; Homo sapiens, HeLa, 72 h): > 50 µM | IC50 (G-361; Homo sapiens, G-361, 72 h): > 50 µM | IC50 (BJ; Homo sapiens, BJ, 72 h): > 50 µM

COCCOC(=O)[C@@]12CC[C@]3(C)[C@H](CC[C@@H]4[C@@]5(C)CC[C@H](OC(C)=O)C(C)(C)[C@@H]5CC[C@]43C)C1=C(C(C)C)C(=O)C2
IC50 (CCRF-CEM; Homo sapiens, CCRF-CEM, 72 h): 17.8 µM | IC50 (MCF7; Homo sapiens, MCF7, 72 h): 42.5 µM | IC50 (HeLa; Homo sapiens, HeLa, 72 h): > 50 µM | IC50 (G-361; Homo sapiens, G-361, 72 h): 19.9 µM | IC50 (BJ; Homo sapiens, BJ, 72 h): > 50 µM

CC(=O)OC[C@H]1O[C@@H](OC(=O)[C@@]23CC[C@]4(C)[C@H](CC[C@@H]5[C@@]6(C)CC[C@H](OC(C)=O)C(C)(C)[C@@H]6CC[C@]54C)C2=C(C(C)C)C(=O)C3)[C@H](OC(C)=O)[C@@H](OC(C)=O)[C@@H]1OC(C)=O
IC50 (CCRF-CEM; Homo sapiens, CCRF-CEM, 72 h): 9.1 µM | IC50 (MCF7; Homo sapiens, MCF7, 72 h): 3.8 µM | IC50 (HeLa; Homo sapiens, HeLa, 72 h): 9.8 µM | IC50 (G-361; Homo sapiens, G-361, 72 h): 4.3 µM | IC50 (BJ; Homo sapiens, BJ, 72 h): > 50 µM

CC(=O)OC[C@H]1O[C@@H](OC(=O)[C@]2(COC(C)=O)CC[C@]3(C)[C@H](CC[C@@H]4[C@@]5(C)CC[C@H](OC(C)=O)C(C)(C)[C@@H]5CC[C@]43C)[C@@H]2O)[C@H](OC(C)=O)[C@@H](OC(C)=O)[C@@H]1OC(C)=O
IC50 (CCRF-CEM; Homo sapiens, CCRF-CEM, 72 h): > 50 µM | IC50 (MCF7; Homo sapiens, MCF7, 72 h): > 50 µM | IC50 (HeLa; Homo sapiens, HeLa, 72 h): > 50 µM | IC50 (G-361; Homo sapiens, G-361, 72 h): > 50 µM | IC50 (BJ; Homo sapiens, BJ, 72 h): 43 µM

CC(C)[C@@H]1CC[C@]2(C(=O)OCC(=O)O)CC[C@]3(C)[C@H](CC[C@@H]4[C@@]5(C)CC[C@H](O)C(C)(C)[C@@H]5CC[C@]43C)[C@@H]12
IC50 (CCRF-CEM; Homo sapiens, CCRF-CEM, 72 h): > 50 µM | IC50 (MCF7; Homo sapiens, MCF7, 72 h): > 50 µM | IC50 (HeLa; Homo sapiens, HeLa, 72 h): > 50 µM | IC50 (G-361; Homo sapiens, G-361, 72 h): > 50 µM | IC50 (BJ; Homo sapiens, BJ, 72 h): > 50 µM

CC(C)[C@@H]1CC[C@]2(C(=O)OCCN3CCCCC3)CC[C@]3(C)[C@H](CC[C@@H]4[C@@]5(C)CC[C@H](O)C(C)(C)[C@@H]5CC[C@]43C)[C@@H]12 [listing 1 of 2 here]
IC50 (CCRF-CEM; ccrf-cem): 19.6 µM | IC50 (MCF7; Homo sapiens, MCF7, 72 h): 31.8 µM | IC50 (HeLa; Homo sapiens, HeLa, 72 h): 26.7 µM | IC50 (G-361; Homo sapiens, G-361, 72 h): 32.2 µM | IC50 (BJ; Homo sapiens, BJ, 72 h): 45.1 µM

CC(=O)O[C@H]1CC[C@]2(C)[C@H]3CC[C@@H]4C5=C(C(C)C)C(=O)C[C@]5(C(=O)OCCN5CCCCC5)CC[C@@]4(C)[C@]3(C)CC[C@H]2C1(C)C
IC50 (CCRF-CEM; Homo sapiens, CCRF-CEM, 72 h): 21.2 µM | IC50 (MCF7; mcf7): 5.8 µM | IC50 (HeLa; hela): 9.1 µM | IC50 (G-361; g-361): 7.2 µM | IC50 (BJ; bj): 44.6 µM

CC(=O)O[C@H]1CC[C@]2(C)[C@H]3CC[C@@H]4C5=C(C(C)C)C(=O)C[C@]5(C(=O)O[C@@H]5O[C@H](CO)[C@@H](O)[C@H](O)[C@H]5O)CC[C@@]4(C)[C@]3(C)CC[C@H]2C1(C)C
IC50 (CCRF-CEM; Homo sapiens, CCRF-CEM, 72 h): 12.2 µM | IC50 (MCF7; Homo sapiens, MCF7, 72 h): 6.6 µM | IC50 (HeLa; Homo sapiens, HeLa, 72 h): 9.3 µM | IC50 (G-361; Homo sapiens, G-361, 72 h): 6.7 µM | IC50 (BJ; Homo sapiens, BJ, 72 h): 48.2 µM

CC(=O)OC[C@@]1(C(=O)OCCBr)CC[C@]2(C)[C@H](CC[C@@H]3[C@@]4(C)CC[C@H](OC(C)=O)C(C)(C)[C@@H]4CC[C@]32C)C1=O
IC50 (CCRF-CEM; Homo sapiens, CCRF-CEM, 72 h): > 50 µM | IC50 (MCF7; Homo sapiens, MCF7, 72 h): > 50 µM | IC50 (HeLa; Homo sapiens, HeLa, 72 h): > 50 µM | IC50 (G-361; Homo sapiens, G-361, 72 h): > 50 µM | IC50 (BJ; Homo sapiens, BJ, 72 h): > 50 µM

C=C(C)[C@@H]1CC[C@]2(C(=O)OCCN3CCOCC3)CC[C@]3(C)[C@H](CC[C@@H]4[C@@]5(C)CC[C@H](O)C(C)(C)[C@@H]5CC[C@]43C)[C@@H]12 [listing 1 of 2 here]
IC50 (MCF7; Homo sapiens, MCF7, 72 h): > 50 µM | IC50 (HeLa; Homo sapiens, HeLa, 72 h): 50 µM | IC50 (G-361; Homo sapiens, G-361, 72 h): > 50 µM | IC50 (BJ; Homo sapiens, BJ, 72 h): > 50 µM

CC(C)[C@@H]1CC[C@]2(C(=O)OCCN3CCCCC3)CC[C@]3(C)[C@H](CC[C@@H]4[C@@]5(C)CC[C@H](O)C(C)(C)[C@@H]5CC[C@]43C)[C@@H]12 [listing 2 of 2 here]
IC50 (CCRF-CEM; Homo sapiens, CCRF-CEM, 72 h): 26.7 µM | IC50 (MCF7; mcf7): 26.1 µM | IC50 (G-361; g-361): 29.9 µM | IC50 (BJ; bj): 46.5 µM

C=C(C)[C@@H]1CC[C@]2(C(=O)OCCN3CCOCC3)CC[C@]3(C)[C@H](CC[C@@H]4[C@@]5(C)CC[C@H](O)C(C)(C)[C@@H]5CC[C@]43C)[C@@H]12 [listing 2 of 2 here]
IC50 (CCRF-CEM; Homo sapiens, CCRF-CEM, 72 h): > 50 µM | IC50 (HeLa; hela): > 50 µM

C=C(C)[C@@H]1CC[C@]2(C(=O)OCCN3CCCC3)CC[C@]3(C)[C@H](CC[C@@H]4[C@@]5(C)CC[C@H](O)C(C)(C)[C@@H]5CC[C@]43C)[C@@H]12
IC50 (CCRF-CEM; ccrf-cem): 2.3 µM | IC50 (MCF7; mcf7): 14.3 µM | IC50 (G-361; g-361): 7.1 µM | IC50 (BJ; bj): 15.5 µM
